Where two headings read alike, the source gives them in different places.
Legend:
[1] = target: soybean lipoxygenase (LOX-3); experiment: Soybean lipoxygenase (LOX-3) inhibition; type: biochemical; settings: after 5 min of incubation; sodium linoleate 100 μM, pH 9.0
Experimental: Lipoxygenase (LOX) inhibitory activity was determined using soybean lipoxygenase (250 U/mL) and sodium linoleate (100 μM) as substrate, in Tris–HCl buffer pH 9.0.

[2] = tested on: carrageenan-induced mouse paw edema; experiment: Carrageenan-induced mouse paw edema; type: in vivo, C57BL/6 mice; settings: ip, 3.5 h, i.p. 0.30 mmol/kg, female C57BL/6, 3.5 h after carrageenan, read-out: % Edema (decrease of carrageenan-induced paw edema vs control)
Experimental: For the in vivo anti-inflammatory activity, C57BL/6 mice were injected with 0.025 mL carrageenan (2% w/v solution in saline) i.d. into the right hind paw, the left paw serving as control. The test compounds dissolved in saline (300 μmol/kg) were given i.p. right after the carrageenan injection, and 3.5 h later the produced edema was estimated as paw weight increase. Results are expressed as percentage of reduction in paw-edema and are the mean of 6 animals (per compound).

[3] = Radical scavenging of DPPH; settings: DPPH 200 μM, 30 min incubation
Experimental: Compounds, dissolved in absolute methanol, at concentrations of 25–400 μM, were added to an equal volume of a methanolic solution of DPPH (final concentration 200 μM) at room temperature (22 ± 2 °C).

[4] = Iron chelation (ferrozine assay); settings: 100 μM compound, Fe2+ 20 μM
Experimental: […] The reaction was initiated with the addition of a 100 μM aqueous ferrozine solution, which chelates iron ions, resulting in an increased maximum absorbance at 562 nm. After incubation at 37 °C for 10 min, the mixture’s absorbance is measured at 562/700 nm. Each value is expressed as the mean of 3 tests per sample [46].

[5] = target: T1, acetylcholinesterase from eel (Electrophorus electricus, UniProt O42275); experiment: Acetylcholinesterase (AChE) inhibition (Ellman); type: biochemical; settings: read-out: AChE Inhibition (%), 300 μM compound
T1 construct: purchased Sigma
T1 sequence (O42275 24-633): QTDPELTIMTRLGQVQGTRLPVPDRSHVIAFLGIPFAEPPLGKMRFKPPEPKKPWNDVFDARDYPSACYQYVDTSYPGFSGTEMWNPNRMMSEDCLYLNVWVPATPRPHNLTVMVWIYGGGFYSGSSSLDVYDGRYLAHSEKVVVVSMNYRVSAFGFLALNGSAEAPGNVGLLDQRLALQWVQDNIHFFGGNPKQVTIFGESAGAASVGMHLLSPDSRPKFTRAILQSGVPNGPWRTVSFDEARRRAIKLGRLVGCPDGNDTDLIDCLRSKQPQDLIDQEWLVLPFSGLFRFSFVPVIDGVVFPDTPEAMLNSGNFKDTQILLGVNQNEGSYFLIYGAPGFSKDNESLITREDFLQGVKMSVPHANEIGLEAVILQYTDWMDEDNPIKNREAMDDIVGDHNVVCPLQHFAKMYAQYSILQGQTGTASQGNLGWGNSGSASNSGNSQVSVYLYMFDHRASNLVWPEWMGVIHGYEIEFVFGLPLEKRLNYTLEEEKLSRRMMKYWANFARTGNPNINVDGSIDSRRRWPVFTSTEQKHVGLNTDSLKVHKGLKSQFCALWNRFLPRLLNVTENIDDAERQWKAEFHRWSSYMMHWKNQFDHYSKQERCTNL
Experimental: (0.31 mM) in phosphate buffer with pH = 7. The incubation mixture is monitored for 7 min at 37 °C.

hyperlipidaemic mice = experiment: Tyloxapol (Triton WR 1339)-induced hyperlipidemia, plasma lipid parameters; type: in vivo; settings: i.p. 84 μmol/kg; for change in vivo at 84 µmol/kg / inhibition in vivo at 84 µmol/kg: Mus musculus, ip, 24 h
Experimental: An aqueous solution of Triton WR 1339 was given i.p. to mice (400 mg/kg of body weight) and one hour later the test compounds (84 μmol/kg of body weight), dissolved in saline or saline only, were administered i.p. After 24 h, blood was taken from the aorta/heart and used for the determination of plasma total cholesterol (TC), triglyceride (TG) levels, and high-density lipoprotein (HDL) levels, using commercially available kits (Biosis Cholesterol Enzymatic/PAP, Biosis Triglycerides GPO/PAP, and Biosis HDL Phosphovolframic, Biosis, Athens Greece). Levels of plasma lipids were determined in duplicate while values presented are the mean from 8 animals (per compound). The levels of low-density lipoprotein (LDL) are calculated according to the equation: LDL (mg/dL) = 3/4 * (TC-HDL).

[6] = tested on: mouse liver microsomal lipid peroxidation; experiment: Inhibition of mouse liver microsomal lipid peroxidation (LP); settings: for IC50: read-out: LP IC50 Value, 45 min incubation
[7] = tested on: plasma of hyperlipidaemic mice; experiment: Total antioxidant capacity (TAC) of plasma in hyperlipidaemic mice; type: in vivo; settings: Mus musculus, ip, 24 h, i.p. 84 μmol/kg, read-out: Total Antioxidant Capacity (TAC) Increase (%)
[8] = plasma, vs tyloxapol control, read-out: % HDL Increase
[9] = ratio calculated, read-out: % HDL/LDL Increase (antiatherogenic index)
[10] = LDL calculated as 3/4*(TC-HDL), read-out: % LDL Decrease
[11] = plasma, vs tyloxapol control, read-out: % Total Cholesterol (TC) Reduction
[12] = plasma, vs tyloxapol control, read-out: % Triglycerides (TG) Reduction

Structure (SMILES) | IC50 [1] | inhibition in vivo at 300 µmol/kg [2] | IC50 [3] | % of Fe(II) Chelation (at 100 μM) [4] | inhibition at 300 µM [5] | change in vivo at 84 µmol/kg (hyperlipidaemic mice; [8]) | change in vivo at 84 µmol/kg (hyperlipidaemic mice; [9]) | inhibition in vivo at 84 µmol/kg (hyperlipidaemic mice; [10]) | inhibition in vivo at 84 µmol/kg (hyperlipidaemic mice; [11]) | inhibition in vivo at 84 µmol/kg (hyperlipidaemic mice; [12]) | IC50 [6] | change in vivo at 84 µmol/kg [7] | LP % Inhibition at 100 μΜ ([6]; 100 μM compound) | % HDL, value marked footnote 2: decrease percentage (hyperlipidaemic mice; plasma, HDL decrease, not increase)
Cc1c(C)c2c(c(C)c1O)CCC(C)(C(=O)N1CCSC(c3ccc(-c4ccccc4)cc3)C1)O2 (centres unmarked) [Compound 10] | 140 µM | 43% | 78 µM | 0% | ~45% | 32% | 77% | 23% | 13% | 52% | 4 µM |  |  | 
COc1ccc(/C=C/C(=O)N2CC(c3ccc(-c4ccccc4)cc3)Sc3ccccc32)cc1OC (centres unmarked) [Compound 12, (E)-1-(2-([1,1′-Biphenyl]-4-yl)-2,3-dihydro-4H-benzo[b][1,4]thiazin-4-yl)-3-(3,4-dimethoxyphenyl)prop-2-en-1-one] | 74 µM | 43% | > 400 µM | 17% | 17% | 63% |  | 59% | 27% | 29% | > 1000 µM | 203% |  | 
CC(C)Cc1ccc(C(C)C(=O)O)cc1 (centres unmarked) [ibuprofen, reference compound] | > 300 µM |  |  |  |  |  |  |  |  |  |  |  |  | 
Cc1c(C)c2c(c(C)c1O)CCC(C)(C(=O)O)O2 (centres unmarked) [Trolox, 6-hydroxy-2,5,7,8-tetramethylchroman-2-carboxylic acid, reference compound] |  |  | 33 µM | 29% |  |  |  |  |  |  |  |  | 43% | 
CC(C)(C)c1cc(/C=C/C(=O)N2CCSC(c3ccc(-c4ccccc4)cc3)C2)cc(C(C)(C)C)c1O (centres unmarked) [Compound 6, (E)-1-(2-([1.1′-Biphenyl]-4-yl)thiomorpholino)-3-(3,5-ditertbutyl-4-hydroxyphenyl)prop-2-en-1-one] | 252 µM | 33% | 288 µM | 0% | ~45% |  | 43% | 49% | 36% | 65% | > 500 µM |  |  | 23 **^,2%
COc1cc(/C=C/C(=O)N2CCSC(c3ccc(-c4ccccc4)cc3)C2)ccc1O (centres unmarked) [Compound 1, (E)-1-(2-([1,1′-Biphenyl]-4-yl)thiomorpholino)-3-(4-hydroxy-3-methoxyphenyl)prop-2-en-1-one] | 68 µM | ≤ 60% | 166 µM | 19% | 22% | 84% |  | 59% | 40% | 83% | 6 µM |  |  | 
COc1ccc2cc([C@H](C)C(=O)O)ccc2c1 [naproxen, reference compound] | 25 µM |  |  |  |  |  |  |  |  |  |  |  |  | 
CC(C)(C)c1cc(/C=C/C(=O)O)cc(C(C)(C)C)c1O [acrylic derivative, (E)-3-(3,5-ditertbutyl-4-hydroxyphenyl)acrylic acid, reference compound] |  |  | 77 µM |  |  |  |  |  |  |  |  |  |  | 
CC(C)(C)c1cc(/C=C/C(=O)N2CC(c3ccc(-c4ccccc4)cc3)Sc3ccccc32)cc(C(C)(C)C)c1O (centres unmarked) [Compound 16, (E)-1-(2-([1,1′-Biphenyl]-4-yl)-2,3-dihydro-4H-benzo[b][1,4]thiazin-4-yl)-3-(3,5-ditertbutyl-4-hydroxyphenyl)prop-2-en-1-one] | 58 µM | 45% | 141 µM | 9% | 24% | 131% |  | 66% | 45% | 67% | > 1000 µM |  |  | 

Reference: PMC12693416, “From Lipid Regulation to Neuroprotection: Multitarget (Benzo)thiazine Derivatives as Promising Leads” (Molecules, 2025)
